Data as given in ChEMBL document CHEMBL3137381, “MMV Box Onchocerca lienalis screening set”.

Legend:
Assay type in all cases: functional
Onchocerca lienalis [1] = assay: MMV: Percent motility assay at a compound concentration of 7.8e-7 M. Activity score legend: 3: Active, 2: Moderately active; 1: Inactive, 0: Toxic; details: at 0.78 µM
Onchocerca lienalis [2] = assay: MMV: Percent motility assay at a compound concentration of 1.9e-7 M. Activity score legend: 3: Active, 2: Moderately active; 1: Inactive, 0: Toxic; details: at 0.19 µM
Onchocerca lienalis [3] = assay: MMV: Percent motility assay at a compound concentration of 1.25e-5 M. Activity score legend: 3: Active, 2: Moderately active; 1: Inactive, 0: Toxic; details: at 12.5 µM
Onchocerca lienalis [4] = assay: MMV: Percent motility assay at a compound concentration of 3.1e-6 M. Activity score legend: 3: Active, 2: Moderately active; 1: Inactive, 0: Toxic; details: at 3.1 µM

Row | SMILES | Motility (Onchocerca lienalis [1]) [%] | Motility (Onchocerca lienalis [2]) [%] | Motility (Onchocerca lienalis [3]) [%] | Motility (Onchocerca lienalis [4]) [%]
1 | Cc1cc(C)cc(Nc2cc(C)nc3nc(C(F)(F)F)nn23)c1 | 100 | 100 | 100 | 100
2 | O=C(NCC(c1ccsc1)N1CCCCCC1)c1ccc(C(F)(F)F)cc1 (centres undefined) | 100 | 100 | 100 | 100
3 | Cc1ccc(-c2cc3c(SCC(=O)Nc4cc(C(F)(F)F)ccc4Cl)nccn3n2)cc1 | 100 | 100 | 100 | 100
4 | CCCCCC(=O)N1c2ccccc2N=C2CC(c3ccc(OC)c(OC)c3)CC(O)=C2C1c1ccc(C(F)(F)F)cc1 (centres undefined) | 100 | 100 | 100 | 100
5 | Cc1cc(NCCN2CCCCC2)c2ccc3ccccc3c2n1 | 100 | 100 | 100 | 100
6 | Cc1ccc(N2C(=O)C3C(C2=O)C2(c4ccccc4)C(=O)C3(c3ccccc3)C(c3ccccc3)=C2c2ccccc2)cc1 (centres undefined) | 100 | 100 | 100 | 100
7 | CCc1c(C)c(=N)c2ccccc2n1C.I | 100 | 100 | 100 | 100
8 | CCOC(=O)c1cn(CC)c2cc(N(C)CCc3ccc(OC)c(OC)c3)c(F)cc2c1=O | 100 | 100 | 100 | 100
9 | CCOC(=O)C1=C(c2ccccc2)N=c2sc(=Cc3cc(C)n(-c4ccc(F)cc4)c3C)c(=O)n2C1c1cccc(OC)c1OC (centres undefined) | 100 | 100 | 100 | 100
10 | CCC1(C)CC(CCNCc2ccccc2O)(c2ccc(C)cc2)CCO1 (centres undefined) | 100 | 100 | 100 | 100
11 | Cc1cc(Nc2ccc(C)c(Cl)c2)n2nc(C(F)(F)F)nc2n1 | 100 | 100 | 100 | 100
12 | Fc1ccc2[nH]c3c(NCCCN4CCOCC4)ncnc3c2c1 | 100 | 100 | 100 | 100
13 | Cc1cccc(Nc2nc(N)c3ccccc3n2)c1.Cl | 100 | 100 | 100 | 100
14 | CCn1c(CN2CCN(Cc3ccccc3)CC2)nc2cc(NC(=O)c3cccs3)ccc21 | 100 | 100 | 100 | 100
15 | COc1cc(OC)c(N(C)C(=O)c2cc3c(s2)-c2ccccc2S(=O)(=O)C3)cc1Cl | 100 | 100 | 100 | 100
16 | COc1ccccc1CNC(=O)CCn1c(=O)[nH]c2ccsc2c1=O | 100 | 100 | 100 | 100
17 | COc1ccc(Br)cc1C1Nc2ccc3ccccc3c2C2=C1C(=O)CC(c1ccccc1)C2 (centres undefined) | 100 | 100 | 66.66 | 100
18 | Cc1cc(C=C2SC(=Nc3ccccc3)N(C3CCCC3)C2=O)c(C)n1-c1ccc(Cl)cc1 | 100 | 100 | 100 | 100
19 | CCc1ccc(Nc2cc(C)c3ccc(O)cc3n2)cc1.Cl | 100 | 100 | 66.66 | 100
20 | CCCc1c(CC)c(=N)c2ccccc2n1C | 100 | 100 | 100 | 100
21 | CCOC(=O)c1cnc2c(C)cc(C)cc2c1Nc1ccc(OC)c(OC)c1 | 100 | 100 | 100 | 100
